Where two headings read alike, the source gives them in different places. Values belong to the compound of their own block, whether it stands above or below them.
Columns and labels:
[1] = molecular target: T1, human erythrocyte GlxI (Homo sapiens, UniProt Q04760); conditions: competitive; previously reported; read-out: dissociation constant Ki; cited from earlier work
T1 construct: Kinetic studies with human erythrocyte GlxI; from tissue; host or cells: human erythrocytes
T1 sequence (Q04760 2-184 limits assumed): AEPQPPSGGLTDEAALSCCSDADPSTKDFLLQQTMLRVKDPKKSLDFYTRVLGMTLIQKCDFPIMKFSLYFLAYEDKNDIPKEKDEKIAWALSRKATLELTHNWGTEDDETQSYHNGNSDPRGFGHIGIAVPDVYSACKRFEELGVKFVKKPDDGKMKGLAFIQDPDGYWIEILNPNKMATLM

[2] = molecular target: T2, hGSTP1-1 (Homo sapiens, UniProt P09211); assay: initial rates of reaction with hGSTP1-1 (substrate kinetics); type: biochemical; conditions: pH 6.5, [GSH]=1 mM, 25° C.; estimated
T2 construct: purchased Sigma Chemical Company; host or cells: human placenta
Protocol: Initial rates of reaction of 1a and 1b with hGSTP1-1 were determined from reciprocal plots of initial velocities (ΔOD235/min), versus [substrate] in buffered solution at pH 6.5, with [GSH]=1 mM (25° C.). Under those conditions, the enzyme-catalyzed GSH addition became rate determining (<0.01 units of transferase in the assay cuvettes).

[3] = tested on: murine and human tumors in culture; conditions: range of different murine and human tumors in culture; read-out: IC50 antitumor activity; cited from earlier work
[4] = molecular target: T1, human erythrocyte GlxI; assay: kinetic studies with human erythrocyte GlxI (competitive inhibition); type: biochemical; conditions: sodium phosphate buffer, pH 7.0, 25° C., read-out: dissociation constant Ki
Protocol: In each kinetic run, the concentration of free GSH was maintained at 0.2 mM by varying the total concentration of GSH and methylglyoxal on the basis of the dissociation constant of the hemithioacetal (Kdiss=2.2 mM). Conditions: 50 mM phosphate buffer, pH 7.0, 25° C.
To investigate the mechanism of formation of 2b, the nonenzymatic reaction of 1b with GSH was monitored spectrophotometrically, and followed a simple first-order decay (FIG. 2, trace A). No intermediate species was detectable. However, in the presence of human placental glutathione transferase (GSTP 1-1) (Predominantly the pi or P1-1 isoform, purchased from Sigma Chemical Company. Salts and free GSH were removed by ultrafiltration. Units of transferase activity were determined using 1-chloro-2,4-dinitrobenzene as substrate (Mannervik, B.; Danielson, U. H. CRC Critical Reviews in Biochemistry 1988, 23, 283-337). The reaction rate profile conformed to a double exponential decay, composed of a rapid, enzyme-dependent, initial phase involving 1b followed by a slower enzyme-independent first-order phase (FIG. 2, traces B and C).

T2 sequence (P09211 2-210 limits assumed): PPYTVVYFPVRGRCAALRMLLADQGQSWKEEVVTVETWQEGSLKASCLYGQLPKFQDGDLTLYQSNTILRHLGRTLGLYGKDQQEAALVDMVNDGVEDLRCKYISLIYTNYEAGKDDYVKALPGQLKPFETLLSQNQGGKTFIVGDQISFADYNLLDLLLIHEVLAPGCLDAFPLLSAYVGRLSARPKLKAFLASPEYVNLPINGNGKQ

SMILES: NC(CCC(=O)NC(CSCC1=CC(O)C(O)C(O)C1=O)C(=O)NCC(=O)O)C(=O)O (stereo not shown) [Compound 2a]
- Ki [1]: 183 ± 6 µM

- kcat/Km, fold lower than that of 1b [2]: ~8.3 fold
SMILES: C/C=C/C(=O)OCC1=C[C@@H](O)[C@@H](O)[C@@H](O)C1=O [Compound 1a, 2-crotonyloxymethyl-(4R, 5R, 6R)-4,5,6-trihydroxy-2-cyclohexenone]
- IC50 [3]: 3 to 44 µM

- Ki [4]: 107 ± 0.1 µM
SMILES: N[C@@H](CCC(=O)N[C@@H](CSCC1=CCCCC1=O)C(=O)NCC(=O)O)C(=O)O [Compound 2b]
